Assay results from patent publication US7365231B2, “Compound with antitumor activity and preparation method therefor” (National Taiwan University of Science & Technology, priority 2005, dated 2008).

Columns and labels:
Colo 205 cells [1] = experiment: Cell cycle analysis by flow cytometry; assay type: cell-based, human
Experimental: (§1) The cell cycle progression of Colo205, HT 29 and HCT-15 cells was examined using flow cytometry after exposure to 1, 2, 4 or 8 μM DPA for 72 hours. […] HT-29 cells were mainly in G0/G1 phase (84.1-86.0%), and only a few percent of cells in S phase (7.4-8.0%) after exposure to 4 μM DPA for 48-72 h. […] The G0/G1 arrest was not induced in the HCT-15 cells treated with 1-8 μM DPA for 24-72 h. […] DPA exerted the dose specific effect for the induced G0/G1 arrest on Colo 205 cells. […] In addition, we noted that DPA-mediated accumulation of Colo205 and HT 29 cells in G1 phase (>80%) was similar to that of DPD (Anti-Cancer Drug 2004; 15:277-80). It is likely that the induced G1-arrest without concomitant apoptosis on Colo 205 and HT 29 colon cancer cells is one unique property of structure I.

HCT-15 cells = experiment: Cell cycle analysis by flow cytometry; assay type: cell-based, human
Experimental: as §1

Colo 205 cells [2] = experiment: Reversibility of DPA-induced growth inhibition after drug withdrawal; assay type: cell-based, human
Experimental: To further investigate whether the DPA-induced growth inhibition was reversible, Colo 205 cells were treated with DPA for 72 hours, and the cells were withdrawn from DPA by culturing in fresh medium for another 48 or 72 hours. […] One possibility is that the relatively lipophilic nature of DPA or DPD reduced cellular efflux after the initial drug exposure. It is inferred that the irreversible property of adamantane and diamantane derivatives provides an advantage to prolong the anticancer activity.

[3] = system: human colon cancer Colo 205 xenografts; experiment: In vivo antiproliferation, colon cancer xenografts, DPA once a week; parameters: species or system ICR nude mice; details: for tumor size compared to vehicle control: end point
Experimental: (§2) We further examined whether DPA is also effective in vivo after tumor formation. For compare the in vivo antitumor activity with DPD (DPA analogue), we followed the method of our previous study (Br. J Cancer 2003; 89: 1995-2003), and the similar doses were used. Cancer cells were transplanted into ICR nude mice, and when the tumors were palpable (2-4 mm), the mice were treated either with vehicle control or DPA (20-80 mg kg^−1, i.p., once a week). […] Its tumor size (48.6 mm^2) was about 3-fold larger than the average tumor size (16.7 mm^2) of the other DPA 80 mg kg^−1-treated mice at 7 days after the initial treatment. […] (ii) DPA presented the dose-specific effect for antitumor activity on human colon cancer xenografts. The dose-specific phenomenon was also found in vitro study of DPA-induced cell cycle arrest on Colo 205 cells as shown in Table 3.

[4] = Toxicity and body weight in nude mice, DPA once a week; assay type: in vivo; details: DPA 20-80 mg kg^−1, i.p.
Experimental: as §2

[5] = system: human colon cancer Colo 205 xenografts; experiment: In vivo antitumor effect of DPA and/or CPT-11, xenografts; parameters: species or system ICR nude mice; details: DPA 20 mg/kg i.p. twice a week; end of experiment
Experimental: To further investigate whether DPA could enhance the antitumoral activity of the chemotherapeutic agent CPT-11, Colo 205 cells were treated with DPA or DPA in combination with CPT-11. Cancer cells were transplanted into ICR nude mice, and when the tumors were palpable (30˜35 mm^3), the mice were treated either with vehicle control, CPT-11 or DPA (20 mg/kg, i.p., twice a week). Tumour volume(V) was calculated according to the following formula: V(mm^3)=0.4AB^2, where A and B are the longest diameter and the shortest diameter, respectively (Cancer Res. 1966; 26:1787-1800). […] The tumor size of DPA in combination with CPT-11-treated mice was a 73% decrease as compared with that of CPT-11-treated mice.

**Q.** What does the source list for `Nc1ccc(Oc2ccc(C3(c4ccc(Oc5ccc(N)c(O)c5)cc4)C4CC5CC(C4)CC3C5)cc2)cc1O` [DPA, 2,2-bis(4-(4-amino-3-hydroxyphenoxy)phenyl)adamantane]?
**A.** accumulation of cells in G1 phase (Colo 205 cells [1]; Colo205): > 80%; G2/M(%) (Colo 205 cells [1]; Colo 205, DPA 1 μM, 72 h): 10.1%; S(%) (Colo 205 cells [1]; Colo 205, DPA 1 μM, 72 h): 29.6%; cells in G2/M phase (HCT-15 cells; 8 μM DPA for 24-48 h): 6.9-7.6%; G0/G1 arrest (HCT-15 cells; 1-8 μM DPA for 24-72 h): not induced; G0/G1(%) (HCT-15 cells; DPA 1 μM, 24 h): 31.4%; G2/M(%) (HCT-15 cells; DPA 1 μM, 24 h): 18.1%; S(%) (HCT-15 cells; DPA 1 μM, 24 h): 50.6%; G0/G1(%) (HCT-15 cells; DPA 1 μM, 48 h): 39.1%; G2/M(%) (HCT-15 cells; DPA 1 μM, 48 h): 15.8%; S(%) (HCT-15 cells; DPA 1 μM, 48 h): 45.1%; G0/G1(%) (HCT-15 cells; DPA 1 μM, 72 h): 51.8%; G2/M(%) (HCT-15 cells; DPA 1 μM, 72 h): 13.2%; S(%) (HCT-15 cells; DPA 1 μM, 72 h): 35.0%; G0/G1(%) (HCT-15 cells; DPA 2 μM, 24 h): 31.8%; G2/M(%) (HCT-15 cells; DPA 2 μM, 24 h): 14.2%; S(%) (HCT-15 cells; DPA 2 μM, 24 h): 54.0%; G0/G1(%) (HCT-15 cells; DPA 2 μM, 48 h): 35.2%; G2/M(%) (HCT-15 cells; DPA 2 μM, 48 h): 16.0%; S(%) (HCT-15 cells; DPA 2 μM, 48 h): 48.8%; G0/G1(%) (HCT-15 cells; DPA 2 μM, 72 h): 49.2%; G2/M(%) (HCT-15 cells; DPA 2 μM, 72 h): 14.3%; S(%) (HCT-15 cells; DPA 2 μM, 72 h): 36.6%; G0/G1(%) (HCT-15 cells; DPA 4 μM, 24 h): 30.6%; G2/M(%) (HCT-15 cells; DPA 4 μM, 24 h): 11.2%; S(%) (HCT-15 cells; DPA 4 μM, 24 h): 58.2%; G0/G1(%) (HCT-15 cells; DPA 4 μM, 48 h): 30.5%; G2/M(%) (HCT-15 cells; DPA 4 μM, 48 h): 14.3%; S(%) (HCT-15 cells; DPA 4 μM, 48 h): 55.3%; G0/G1(%) (HCT-15 cells; DPA 4 μM, 72 h): 40.8%; G2/M(%) (HCT-15 cells; DPA 4 μM, 72 h): 17.2%; S(%) (HCT-15 cells; DPA 4 μM, 72 h): 42.1%; G0/G1(%) (HCT-15 cells; DPA 8 μM, 24 h): 39.6%; G2/M(%) (HCT-15 cells; DPA 8 μM, 24 h): 6.9%; S(%) (HCT-15 cells; DPA 8 μM, 24 h): 53.5%; G0/G1(%) (HCT-15 cells; DPA 8 μM, 48 h): 37.5%; G2/M(%) (HCT-15 cells; DPA 8 μM, 48 h): 7.6%; S(%) (HCT-15 cells; DPA 8 μM, 48 h): 54.9%; G0/G1(%) (HCT-15 cells; DPA 8 μM, 72 h): 38.2%; G2/M(%) (HCT-15 cells; DPA 8 μM, 72 h): 11.9%; S(%) (HCT-15 cells; DPA 8 μM, 72 h): 49.9%; proliferation activity after removal of DPA (Colo 205 cells [2]; 1 μM DPA 72 h, then 48-72 hours in fresh medium): reversed and returned to control level; reversal of growth inhibition after removal of DPA (Colo 205 cells [2]; 2, 4 or 8 μM DPA 72 h, then 48-72 hours in fresh medium): no reversal effect; cell viability (Colo 205 cells [2]; haemocytometer, treated cells except 8 μM DPA): > 90%; concentration of maximum in vivo antitumor effect ([3]; Colo 205 xenografts, i.p.): about 40 mg kg^−1 week^−1; tumor size compared to vehicle control ([3]; DPA 20 mg kg^−1 i.p. once a week): not significantly decreased; tumor size compared to control groups ([3]; DPA 40 mg kg^−1 i.p. once a week): significantly (P<0.05) decreased; average tumor size ([3]; DPA 40 mg kg^−1 i.p. once a week, end of study (control 81.5)): 29.6 mm^2; tumor size of one mouse with abnormally large tumor ([3]; DPA 80 mg kg^−1, 7 days after initial treatment): 48.6 mm^2; average tumor size of the other mice ([3]; DPA 80 mg kg^−1, 7 days after initial treatment, without the outlier mouse): 16.7 mm^2; tumor size compared to vehicle control ([3]; DPA 80 mg kg^−1 i.p. once a week): not significantly decreased; body weight [4]: No significant reduction in body weight; tumor size compared to control groups [5]: significantly (P<0.05) decreased
